The results in this text go back to patent US8012979B2, “Compounds and their uses 707” (AstraZeneca AB, priority 2007, dated 2011).

The structures appear in SMILES notation.

T1 sequence (Q16539 whole entry): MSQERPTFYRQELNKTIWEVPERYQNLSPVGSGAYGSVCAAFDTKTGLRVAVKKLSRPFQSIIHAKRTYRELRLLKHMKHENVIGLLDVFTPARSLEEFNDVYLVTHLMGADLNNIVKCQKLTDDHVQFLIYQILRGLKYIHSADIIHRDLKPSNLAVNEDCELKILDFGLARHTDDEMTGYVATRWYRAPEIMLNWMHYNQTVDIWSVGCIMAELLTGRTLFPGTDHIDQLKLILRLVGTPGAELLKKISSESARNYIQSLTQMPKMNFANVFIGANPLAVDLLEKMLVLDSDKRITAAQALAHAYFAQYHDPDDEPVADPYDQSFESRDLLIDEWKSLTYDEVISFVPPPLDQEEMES

The experiment concerns the target T1, human active recombinant p38α-6His tagged (Homo sapiens, UniProt Q16539).
T1 construct: 6His
Kind of experiment: p38 Alpha Enzyme Assay (AlphaScreen, biotinylated-ATF2 substrate). The following applies: pre-incubated 4 hours at 37° C., reaction initiated with ATP; 0.5 nM enzyme; read-out: p38 pIC50 (converted). The class given is biochemical. How it is done:
The ability of the compounds of formula (I) to inhibit p38 kinase may be determined using the following biological assay:
Enzyme assays were performed in polypropylene 96 well plates. The following solutions were added to each well; 10 μL of compound dilutions in assay buffer (20 mM HEPES pH 7.4, containing 20 mM magnesium acetate, 0.005% (w/v) Tween-20, 10 mM DTT) containing 1% (v/v) DMSO or assay buffer containing 1% (v/v) DMSO alone, 70 μL of assay buffer containing 36 nM substrate (biotinylated-ATF2) and 10 μL of an appropriate dilution of human active recombinant p38α-6His tagged. Depending on batch of p38, an appropriate dilution was typically a 5 nM solution to give a final enzyme concentration of 0.5 nM. At this stage, background control wells also received 50 μL of AlphaScreen quench buffer (10 mM HEPES pH 7.4 containing 100 mM EDTA, 0.2% (w/v) bovine serum albumin). The plate was covered, pre-incubated for 4 hours at 37° C. and the enzyme reaction initiated by addition of 10 μL 1 mM ATP. After incubation for a further 45 minutes at 37° C., the reaction was stopped by addition of 50 μL quench reagent and 50 μL of the quenched reaction mixture transferred to an opaque, white 96-well plate. Detection reagent, 25 μL of 10 mM HEPES pH 7.4 containing 100 mM EDTA, 0.2% (w/v) bovine serum albumin, 0.3 nM anti phosphoATF2 antibody and 25 μg/mL of ‘AlphaScreen protein A acceptor and donor beads’ (PerkinElmer Inc.), was added to all wells in a darkened room, the plate sealed and left in the dark for at least 5 hours before AlphaScreen readings were taken using a Perkin Elmer EnVision reader. Total, uninhibited activity was determined from assays performed in each assay plate. The mean control in the absence of p38 activity was subtracted from each well. Data were expressed as percent inhibition of total activity using equation 1. Percent Inhibition=100*(1−Test/Control) Eq.1 Where . . . . • Test=p38 kinase activity in the presence of compound • Control=p38 kinase activity in the absence of compound.
pIC50 is defined as the logarithm of the reciprocal of the concentration of compound required for 50% reduction in total p38 kinase activity.
Turning to `Cc1ccc(C(=O)NC2CC2)cc1-c1ccc2c(=O)n(Cc3ccc(S(C)(=O)=O)cc3)ccc2c1` [Example 5, N-Cyclopropyl-3-[2-(4-methanesulfonyl-benzyl)-1-oxo-1,2-dihydro-isoquinolin-6-yl]-4-methyl-benzamide], the IC50 is 3.16 nM.

For the compound `Cc1ccc(C(=O)NC2CC2)cc1-c1ccc2c(=O)n(CC3CC3)cc(CN3CCCN(C(C)C)CC3)c2c1` [Example 73, N-Cyclopropyl-3-(2-(cyclopropylmethyl)-4-((4-isopropyl-1,4-diazepan-1-yl)methyl)-1-oxo-1,2-dihydroisoquinolin-6-yl)-4-methylbenzamide], the IC50 is 1.26 nM.

Take `Cc1ccc(C(=O)NC2CC2)cc1-c1ccc2c(=O)n(Cc3ccccc3)cc(CN3CCCC3)c2c1` [Example 61, 3-(2-Benzyl-1-oxo-4-(pyrrolidin-1-ylmethyl)-1,2-dihydroisoquinolin-6-yl)-N-cyclopropyl-4-methylbenzamide]: the IC50 was 10 nM.

On to `Cc1ccc(C(=O)NC2CC2)cc1-c1ccc2c(=O)n(CC3CC3)cc(CN(C)CCN(C)C)c2c1` [Example 68, N-Cyclopropyl-3-(2-(cyclopropylmethyl)-4-(((2-(dimethylamino)ethyl)(methyl)amino)methyl)-1-oxo-1,2-dihydroisoquinolin-6-yl)-4-methylbenzamide], for which the IC50 was 3.98 nM.

In the case of `Cc1ccc(C(=O)NC2CC2)cc1-c1ccc2c(=O)n(Cc3cccc(OCCCN(C)C)c3)c(C)cc2c1` [Example 94, N-Cyclopropyl-3-(2-(3-(3-(dimethylamino)propoxy)benzyl)-3-methyl-1-oxo-1,2-dihydroisoquinolin-6-yl)-4-methylbenzamide], the IC50 is 3.16 nM.

On to `Cc1c(F)cc(C(=O)NC2CC2)cc1-c1ccc2c(=O)n(CC3CC3)cc(CN[C@@H]3CCNC3)c2c1` [Example 110, (R)—N-Cyclopropyl-3-(2-(cyclopropylmethyl)-1-oxo-4-((pyrrolidin-3-ylamino)methyl)-1,2-dihydroisoquinolin-6-yl)-5-fluoro-4-methylbenzamide], for which the IC50 was 1 nM.

In the case of `Cc1ccc(C(=O)NC2CC2)cc1-c1ccc2c(=O)n(CC3CC3)cc(C(=O)N3CCN(CCN(C)C)CC3)c2c1` [Example 46, N-Cyclopropyl-3-(2-(cyclopropylmethyl)-4-(4-(2-(dimethylamino)ethyl)piperazine-1-carbonyl)-1-oxo-1,2-dihydroisoquinolin-6-yl)-methylbenzamide], the IC50 is 25.1 nM.

In the case of `Cc1ccc(C(=O)NC2CC2)cc1-c1ccc2c(=O)n(Cc3ccc(C(=O)NS(C)(=O)=O)cc3)cc(CN3CCCN(C)CC3)c2c1` [Example 114, N-Cyclopropyl-4-methyl-3-(4-((4-methyl-1,4-diazepan-1-yl)methyl)-2-(4-(methylsulfonylcarbamoyl)benzyl)-1-oxo-1,2-dihydroisoquinolin-6-yl)benzamide], the IC50 was 0.251 nM.

For the compound `Cc1c(F)cc(C(=O)NC2CC2)cc1-c1ccc2c(=O)n(CC3CC3)cc(CN3CC[C@@H](N)C3)c2c1` [Example 109, (R)-3-(4-((3-Aminopyrrolidin-1-yl)methyl)-2-(cyclopropylmethyl)-1-oxo-1,2-dihydroisoquinolin-6-yl)-N-cyclopropyl-5-fluoro-4-methylbenzamide], the IC50 was 1.58 nM.

Take `Cc1c(F)cc(C(=O)NC2CC2)cc1-c1ccc2c(=O)n(CC3CC3)cc(CN3CCC[C@H]3CN)c2c1` [Example 128, (S)-3-(4-((2-(Aminomethyl)pyrrolidin-1-yl)methyl)-2-(cyclopropylmethyl)-1-oxo-1,2-dihydroisoquinolin-6-yl)-N-cyclopropyl-5-fluoro-4-methylbenzamide]: the IC50 was 0.316 nM.

Take `Cc1c(F)cc(C(=O)NC2CC2)cc1-c1ccc2c(=O)n(CC3CC3)cc(CN3CCN[C@H](CO)C3)c2c1` [Example 102, (S)—N-Cyclopropyl-3-(2-(cyclopropylmethyl)-4-((3-(hydroxymethyl)piperazin-1-yl)methyl)-1-oxo-1,2-dihydroisoquinolin-6-yl)-5-fluoro-4-methylbenzamide]: the IC50 was 0.0501 nM.
